Test results taken from patent US7973147B2, “K04-0144 substance and a process for production thereof” (The Kitasato Institute, priority 2006, dated 2011).
Converted amounts (≈) assume the structure as drawn. “Also recorded” adds a separate entry of the source. Read-outs that look alike come from different tables or passages of the source.

Tests used:
[1] = test system: MRSA N315 IR94; assay: MIC, agar plate dilution method; type: cell-based, methicillin-resistant Staphylococcus aureus; conditions: Staphylococcus aureus, 20 h
Description: (§1) Assay of minimum inhibitory concentration (MIC) was performed according to the agar plate dilution method (Method of Japan Society of Chemotherapy, CHEMOTHERAPY 29, 76-79, 1981).
(§2) Test organisms used were 27 types of microorganisms including clinical isolates of methicillin-resistant Staphylococcus aureus. Each test organism was cultured in Mueller-Hinton broth (2.1% w/v) (DIFCO) at 37° C. for 20 hours, and the cultured cells were suspended to about 10^6 cell counts/ml in the same medium, then was used as the microbial suspension for inoculation. The prepared microbial suspension was smeared by using the microplanter on MHA medium (Mueller-Hinton broth 2.1% (w/v) and agar 1.5%) containing K04-0144A substance, K04-0144B substance or K04-0144C substance, each of which was subjected to two-fold stepwise dilution from 128 μg/ml. After culturing at 37° C. for 20 hours, MIC was determined by macroscopically confirming the growth of microorganisms. Vancomycin, arbekacin and linezolid were used as a comparative control.

[2] = test system: MRSA 70; assay: MIC, agar plate dilution method; type: cell-based, methicillin-resistant Staphylococcus aureus; conditions: Staphylococcus aureus
Description: as §1, §2

[3] = test system: MRSA 92-1191; assay: MIC, agar plate dilution method; type: cell-based, methicillin-resistant Staphylococcus aureus; conditions: Staphylococcus aureus; MRSA 92-1191; 37° C., 20 hours; read-out: MIC
Description: as §1, §2

[4] = test system: MRSA N315 IR94 HR-1; assay: MIC, agar plate dilution method; type: cell-based, methicillin-resistant Staphylococcus aureus; conditions: Staphylococcus aureus, 20 h
Description: as §1, §2

[5] = Solubility in solvent; type: physicochemical
[6] = test system: S. aureus Smith; assay: MIC, agar plate dilution method; type: cell-based; conditions: Staphylococcus aureus; S. aureus Smith; 37° C., 20 hours; read-out: MIC
Description: as §1, §2

[7] = test system: C. freundii ATCC8090; assay: MIC, agar plate dilution method; type: cell-based; conditions: Citrobacter freundii; C. freundii ATCC8090; 37° C., 20 hours; read-out: MIC
Description: as §1, §2

[8] = test system: M. luteus ATCC9341; assay: MIC, agar plate dilution method; type: cell-based; conditions: Micrococcus luteus; M. luteus ATCC9341; 37° C., 20 hours; read-out: MIC
Description: as §1, §2

[9] = test system: E. faecalis ATCC21212; assay: MIC, agar plate dilution method; type: cell-based; conditions: Enterococcus faecalis; E. faecalis ATCC21212; 37° C., 20 hours; read-out: MIC
Description: as §1, §2

[10] = test system: P. mirabilis IFO3849; assay: MIC, agar plate dilution method; type: cell-based; conditions: Proteus mirabilis; P. mirabilis IFO3849; 37° C., 20 hours; read-out: MIC
Description: as §1, §2

[11] = test system: S. aureus ISP217; assay: MIC, agar plate dilution method; type: cell-based; conditions: Staphylococcus aureus; S. aureus ISP217; 37° C., 20 hours; read-out: MIC
Description: as §1, §2

[12] = test system: E. aerogenes NCTC10006; assay: MIC, agar plate dilution method; type: cell-based; conditions: Klebsiella aerogenes; E. aerogenes NCTC10006; 37° C., 20 hours; read-out: MIC
Description: as §1, §2

[13] = test system: P. aeruginosa 46001; assay: MIC, agar plate dilution method; type: cell-based; conditions: Pseudomonas aeruginosa; P. aeruginosa 46001; 37° C., 20 hours; read-out: MIC
Description: as §1, §2

[14] = test system: A. calcoaceticus IFO2552; assay: MIC, agar plate dilution method; type: cell-based; conditions: Acinetobacter calcoaceticus; A. calcoaceticus IFO2552; 37° C., 20 hours; read-out: MIC
Description: as §1, §2

[15] = test system: P. aeruginosa E-2; assay: MIC, agar plate dilution method; type: cell-based; conditions: Pseudomonas aeruginosa, E2; P. aeruginosa E-2; 37° C., 20 hours; read-out: MIC
Description: as §1, §2

[16] = test system: S. epidermidis IFO12648; assay: MIC, agar plate dilution method; type: cell-based; conditions: Staphylococcus epidermidis; S. epidermidis IFO12648; 37° C., 20 hours; read-out: MIC
Description: as §1, §2

[17] = test system: K. pneumoniae NCTN9632; assay: MIC, agar plate dilution method; type: cell-based; conditions: Klebsiella pneumoniae; K. pneumoniae NCTN9632; 37° C., 20 hours; read-out: MIC
Description: as §1, §2

[18] = test system: E. facecalis NTCT12201(VanA); assay: MIC, agar plate dilution method; type: cell-based; conditions: E. facecalis NTCT12201(VanA); 37° C., 20 hours; read-out: MIC
Description: as §1, §2

[19] = test system: S. marcescens IFO12648; assay: MIC, agar plate dilution method; type: cell-based; conditions: Serratia marcescens; S. marcescens IFO12648; 37° C., 20 hours; read-out: MIC
Description: as §1, §2

[20] = test system: P. vulgaris OX-19; assay: MIC, agar plate dilution method; type: cell-based; conditions: Proteus vulgaris, OX19; P. vulgaris OX-19; 37° C., 20 hours; read-out: MIC
Description: as §1, §2

[21] = test system: M. morganii IID Kono; assay: MIC, agar plate dilution method; type: cell-based; conditions: Morganella morganii; M. morganii IID Kono; 37° C., 20 hours; read-out: MIC
Description: as §1, §2

[22] = test system: S. aureus 8325(pEP2104); assay: MIC, agar plate dilution method; type: cell-based; conditions: Staphylococcus aureus, 20 h
Description: as §1, §2

[23] = test system: S. aureus ISP447; assay: MIC, agar plate dilution method; type: cell-based; conditions: Staphylococcus aureus; S. aureus ISP447; 37° C., 20 hours; read-out: MIC
Description: as §1, §2

[24] = test system: E. coli NIHJ JC-2; assay: MIC, agar plate dilution method; type: cell-based; conditions: Escherichia coli, NIHJJC2; E. coli NIHJ JC-2; 37° C., 20 hours; read-out: MIC
Description: as §1, §2

[25] = test system: S. aureus FDA209P; assay: MIC, agar plate dilution method; type: cell-based; conditions: Staphylococcus aureus; S. aureus FDA209P; 37° C., 20 hours; read-out: MIC
Description: as §1, §2

[26] = test system: E. cloacae IFO13535; assay: MIC, agar plate dilution method; type: cell-based; conditions: Enterobacter cloacae; E. cloacae IFO13535; 37° C., 20 hours; read-out: MIC
Description: as §1, §2

[27] = test system: E. faecium NTCT12203(VanA); assay: MIC, agar plate dilution method; type: cell-based; conditions: Enterococcus faecium; E. faecium NTCT12203(VanA); 37° C., 20 hours; read-out: MIC
Description: as §1, §2

[28] = test system: S. aureus 8325(pMS97); assay: MIC, agar plate dilution method; type: cell-based; conditions: Staphylococcus aureus, 20 h
Description: as §1, §2

[29] = test system: methicillin-resistant Staphylococcus aureus (MRSA) K24 strain; assay: Enhancing action on activity of imipenem by paper disc method; type: cell-based
Description: Clinical isolate of methicillin-resistant Staphylococcus aureus (MRSA) K24 strain was used as a test microorganism. After the strain of MRSA K24 was cultured in Mueller-Hinton broth (2.1% w/v) (DIFCO) at 37° C. for 20 hours, the strain was suspended to the concentration corresponding to 0.5 Mc FARAND (about 10^8 CFU/ml) in the same medium. The suspension was smeared on MHA medium (Mueller-Hinton broth 2.1% (w/v), agar 1.5%) and a medium of the same composition containing imipenem (Tienem for Intramuscular Injection, 0.5 g, Banyu Pharmaceutical Co., Ltd., Japan) with a concentration without affecting the growth of test microorganisms, i.e. final concentration of 10 μg/ml. Smearing was performed according to the method of National Committee for Laboratory Standard, the U.S. (NCCLS), by using sterilized cotton-tipped swab (Kawamoto Sangyo Co., Ltd., Japan).

[30] = MRSA 70, 37° C., 20 hours, read-out: MIC

Structure (SMILES)	MIC [3]	MIC [6]	MIC [7]	MIC [8]	MIC [9]	MIC [10]	MIC [11]	MIC [12]	MIC [13]	MIC [14]	MIC [15]	MIC [16]	MIC [17]	MIC [18]	MIC [19]	MIC [20]	MIC [21]	MIC [23]	MIC [24]	MIC [25]	other results
C=C(C/C=C(\C)CCC=C(C)C)CCC(C)(C)/C=C/CC/C(C)=C\COC(COP(=O)(O)OC1OC(C(N)=O)C(C)(O)C(OC(N)=O)C1OC1OC(CO)C(OC2OC(C)C(OC3OC(C(=O)O)C(O)C(O)C3O)C(O)C2NC(C)=O)C(O)C1NC(C)=O)C(=O)O (centres unmarked) [K04-0144B]	1 µg/mL (≈ 0.755 µM)	2 µg/mL (≈ 1.51 µM)	> 16 µg/mL	> 16 µg/mL	2 µg/mL (≈ 1.51 µM)	16 µg/mL (≈ 12.1 µM)	0.5 µg/mL (≈ 0.377 µM)	> 16 µg/mL	> 16 µg/mL	8 µg/mL (≈ 6.04 µM)	> 16 µg/mL	8 µg/mL (≈ 6.04 µM)	> 16 µg/mL	2 µg/mL (≈ 1.51 µM)	> 16 µg/mL	4 µg/mL (≈ 3.02 µM)	> 16 µg/mL	0.5 µg/mL (≈ 0.377 µM)	> 16 µg/mL	2 µg/mL (≈ 1.51 µM)	MIC [1]: 0.125 µg/mL (≈ 0.0943 µM); MIC ([2]; MRSA, 20 h): 0.125 µg/mL (≈ 0.0943 µM); MIC [4]: 0.125 µg/mL (≈ 0.0943 µM); Solubility in solvent ([5]; listed as K04-0144B Substance): Soluble in water, methanol and dimethyl sulfoxide; also recorded: Insoluble in acetone, chloroform and n-hexane; MIC [22]: 0.06 µg/mL (≈ 0.0453 µM); MIC [26]: > 16 µg/mL; MIC [27]: > 16 µg/mL; MIC [28]: 1 µg/mL (≈ 0.755 µM)
CC(=O)NC[C@H]1CN(c2ccc(N3CCOCC3)c(F)c2)C(=O)O1 [linezolid, reference compound]	2 µg/mL (≈ 5.93 µM)	2 µg/mL (≈ 5.93 µM)	> 32 µg/mL	2 µg/mL (≈ 5.93 µM)	2 µg/mL (≈ 5.93 µM)	> 32 µg/mL	2 µg/mL (≈ 5.93 µM)	> 32 µg/mL	> 32 µg/mL	> 32 µg/mL	> 32 µg/mL	2 µg/mL (≈ 5.93 µM)	> 32 µg/mL	2 µg/mL (≈ 5.93 µM)	> 32 µg/mL	8 µg/mL (≈ 23.7 µM)	> 32 µg/mL	2 µg/mL (≈ 5.93 µM)	> 32 µg/mL	1 µg/mL (≈ 2.96 µM)	MIC [1]: 1 µg/mL (≈ 2.96 µM); MIC [2, 30]: 0.5 µg/mL (≈ 1.48 µM); MIC [26]: > 32 µg/mL; MIC [27]: 2 µg/mL (≈ 5.93 µM)
NCC[C@H](O)C(=O)N[C@@H]1C[C@H](N)[C@@H](O[C@H]2O[C@H](CN)CC[C@H]2N)[C@H](O)[C@H]1O[C@H]1O[C@H](CO)[C@@H](O)[C@H](N)[C@H]1O [arbekacin, reference compound]	0.5 µg/mL (≈ 0.905 µM)	≤ 0.25 µg/mL	0.5 µg/mL (≈ 0.905 µM)	≤ 0.25 µg/mL	> 32 µg/mL	2 µg/mL (≈ 3.62 µM)	≤ 0.25 µg/mL	≤ 0.25 µg/mL	1 µg/mL (≈ 1.81 µM)	≤ 0.25 µg/mL	4 µg/mL (≈ 7.24 µM)	≤ 0.25 µg/mL	≤ 0.25 µg/mL	> 32 µg/mL	1 µg/mL (≈ 1.81 µM)	2 µg/mL (≈ 3.62 µM)	0.5 µg/mL (≈ 0.905 µM)	≤ 0.25 µg/mL	> 32 µg/mL	≤ 0.25 µg/mL	MIC [2, 30]: 0.5 µg/mL (≈ 0.905 µM); MIC [4]: 1 µg/mL (≈ 1.81 µM); MIC [22]: ≤ 0.25 µg/mL; MIC [26]: 0.5 µg/mL (≈ 0.905 µM); MIC [27]: 8 µg/mL (≈ 14.5 µM); MIC [28]: ≤ 0.25 µg/mL
C=C/C(C)=C/CC1C2(C)CCCC(C)(C)C2CC(O)C1(O)CSCC(NC(C)=O)C(=O)O (centres unmarked) [K04-0144D substance]	–	–	–	–	–	–	–	–	–	–	–	–	–	–	–	–	–	–	–	–	Diameter of inhibition ring ([29]; 1 μg/6 mm disc, Imipenem (10 μg/ml) (+)): 15 mm; Diameter of inhibition ring ([29]; 1 μg/6 mm disc, Imipenem (10 μg/ml) (−)): did not exhibit an inhibitory ring; Diameter of inhibition ring ([29]; 10 μg/6 mm disc, Imipenem (10 μg/ml) (+)): 26 mm; Diameter of inhibition ring ([29]; 10 μg/6 mm disc, Imipenem (10 μg/ml) (−)): 14 mm; Solubility in solvent [5]: Soluble in methanol and water acetonitrile; also recorded: Insoluble in chloroform and hexane ethyl acetate
